Measured values as given in patent US20260262643A1, “HERBICIDAL BENZOXAZINES” (FMC CORPORATION, priority 2022, published 2026).
Like-named read-outs stand apart in the source and are kept apart here.

What was measured:
[1] = test system: kochia; assay: Test A preemergence; format: in vivo, Bassia scoparia; settings: Bassia scoparia, pre-emergence, 240 h, read-out: Plant response rating, Kochia; for pest or weed control at 125 g/ha: 125 g ai/ha; for pest or weed control at 500 g/ha: 500 g ai/ha
How it was run: (§1)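 Seeds in loam–sand blend received a directed preemergence soil spray of compound in non-phytotoxic solvent with surfactant; postemergence plants (2–10 cm, one- to two-leaf stage) were sprayed with the same formulation. After 10 days in greenhouse, injury was rated visually versus untreated controls, 0 (no effect) to 100 (complete control).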

[2] = test system: ducksalad; assay: Test B flooded paddy test; format: in vivo, Heteranthera limosa; settings: Heteranthera limosa, 312 h, 250 g ai/ha, Flood, 13 days, 0 to 100 scale (0 no effect, 100 complete control); read-out: Plant response rating, Ducksalad
How it was run: (§2)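 Flooded to 3 cm at treatment time, 2-leaf plants got the test compound applied straight into the paddy water. They then stayed under constant flood in a greenhouse for 13 days. Ratings used a 0 to 100 visual scale.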

[3] = test system: ryegrass, Italian; assay: Test A postemergence; format: in vivo, Lolium multiflorum; settings: Lolium multiflorum, post-emergence, 240 h, postemergence, 10 days, 0 to 100 scale (0 no effect, 100 complete control); for pest or weed control at 125 g/ha: 125 g ai/ha, read-out: Ryegrass, Italian plant response rating; for pest or weed control at 500 g/ha: 500 g ai/ha, visual injury, read-out: Plant response rating, Ryegrass, Italian
How it was run: as §1

[4] = test system: foxtail, giant; assay: Test A postemergence; format: in vivo, Setaria faberi; settings: Setaria faberi, post-emergence, 240 h, postemergence, 10 days, 0 to 100 scale (0 no effect, 100 complete control); for pest or weed control at 125 g/ha: 125 g ai/ha, read-out: Foxtail, Giant plant response rating; for pest or weed control at 500 g/ha: 500 g ai/ha, visual injury, read-out: Plant response rating, Foxtail, Giant
How it was run: as §1

[5] = test system: sedge, umbrella; assay: Test B flooded paddy test; format: in vivo, Cyperus difformis; settings: Cyperus difformis, 312 h; 250 g ai/ha, Flood, 13 days, 0 to 100 scale (0 no effect, 100 complete control); read-out: Plant response rating, Sedge, Umbrella
How it was run: as §2

[6] = test system: corn; assay: Test A postemergence; format: in vivo, Zea mays; settings: Zea mays, post-emergence, 240 h, postemergence, 10 days, 0 to 100 scale (0 no effect, 100 complete control); for plant injury at 125 g/ha: 125 g ai/ha, read-out: Corn plant response rating; for Corn plant response rating (crop injury, 0 = no effect, 100 = complete kill) at 500 g/ha: 500 g ai/ha, visual injury
How it was run: as §1

[7] = test system: goosegrass; assay: Test A postemergence; format: in vivo, Eleusine indica; settings: Eleusine indica, post-emergence, 240 h, postemergence, 10 days, 0 to 100 scale (0 no effect, 100 complete control); for pest or weed control at 125 g/ha: 125 g ai/ha, read-out: Goosegrass plant response rating; for pest or weed control at 500 g/ha: 500 g ai/ha, visual injury, read-out: Plant response rating, Goosegrass
How it was run: as §1

[8] = test system: ryegrass, Italian; assay: Test A preemergence; format: in vivo, Lolium multiflorum; settings: Lolium multiflorum, pre-emergence, 240 h, read-out: Plant response rating, Ryegrass, Italian; for pest or weed control at 125 g/ha: 125 g ai/ha; for pest or weed control at 500 g/ha: 500 g ai/ha
How it was run: as §1

[9] = test system: soybean; assay: Test A postemergence; format: in vivo, Glycine max; settings: Glycine max, post-emergence, 240 h, postemergence, 10 days, 0 to 100 scale (0 no effect, 100 complete control); for plant injury at 125 g/ha: 125 g ai/ha, read-out: Soybean plant response rating; for plant injury at 500 g/ha: 500 g ai/ha, visual injury, read-out: Plant response rating, Soybean
How it was run: as §1

[10] = test system: galium; assay: Test A postemergence; format: in vivo, Galium aparine; settings: Galium, post-emergence, 240 h, postemergence, 10 days, 0 to 100 scale (0 no effect, 100 complete control)
How it was run: as §1

[11] = test system: goosegrass; assay: Test A preemergence; format: in vivo, Eleusine indica; settings: Eleusine indica, pre-emergence, 240 h, read-out: Plant response rating, Goosegrass; for pest or weed control at 125 g/ha: 125 g ai/ha; for pest or weed control at 500 g/ha: 500 g ai/ha
How it was run: as §1

[12] = test system: wheat; assay: Test A preemergence; format: in vivo, Triticum aestivum; settings: Triticum aestivum, pre-emergence, 240 h, read-out: Plant response rating, Wheat; for plant injury at 125 g/ha: 125 g ai/ha; for plant injury at 500 g/ha: 500 g ai/ha
How it was run: as §1

[13] = test system: ragweed; assay: Test A postemergence; format: in vivo, Ambrosia artemisiifolia; settings: Ambrosia artemisiifolia, post-emergence, 240 h, postemergence, 10 days, 0 to 100 scale (0 no effect, 100 complete control); for pest or weed control at 125 g/ha: 125 g ai/ha, read-out: Ragweed plant response rating; for pest or weed control at 500 g/ha: 500 g ai/ha, visual injury, read-out: Plant response rating, Ragweed
How it was run: as §1

[14] = test system: blackgrass; assay: Test A preemergence; format: in vivo, Alopecurus myosuroides; settings: Alopecurus myosuroides, pre-emergence, 240 h, read-out: Plant response rating, Blackgrass; for pest or weed control at 125 g/ha: 125 g ai/ha, visual injury after 10 days, 0 to 100 scale, 0 is no effect, 100 is complete control; for pest or weed control at 500 g/ha: 500 g ai/ha, 0 to 100 scale (0 no effect, 100 complete control), 10 days
How it was run: as §1

[15] = visual injury after 10 days, 0 to 100 scale, 0 is no effect, 100 is complete control
[16] = 0 to 100 scale (0 no effect, 100 complete control), 10 days

| Structure (SMILES) | pest or weed control at 125 g/ha [1, 15] [%] | pest or weed control at 250 g/ha [2] [%] | pest or weed control at 125 g/ha [3] [%] | pest or weed control at 500 g/ha [3] [%] | pest or weed control at 125 g/ha [4] [%] | pest or weed control at 500 g/ha [4] [%] | pest or weed control at 250 g/ha [5] [%] | plant injury at 125 g/ha [6] [%] | Corn plant response rating (crop injury, 0 = no effect, 100 = complete kill) at 500 g/ha [6] [%] | pest or weed control at 125 g/ha [7] [%] | pest or weed control at 500 g/ha [7] [%] | pest or weed control at 125 g/ha [8, 15] [%] | plant injury at 125 g/ha [9] [%] | plant injury at 500 g/ha [9] [%] | pest or weed control at 125 g/ha [11, 15] [%] | plant injury at 125 g/ha [12, 15] [%] | pest or weed control at 125 g/ha [13] [%] | pest or weed control at 500 g/ha [13] [%] | pest or weed control at 500 g/ha [1, 16] [%] | pest or weed control at 125 g/ha [14] [%] | further results |
| --- | --- | --- | --- | --- | --- | --- | --- | --- | --- | --- | --- | --- | --- | --- | --- | --- | --- | --- | --- | --- | --- |
| Cc1ccc(-n2ncnc2C)cc1C(=O)N1C[C@H](C)Oc2c(Cl)cccc21 (single isomer, unassigned) [Compound 126] | 0 | 0 | 0 | 50 | 0 | 70 | 0 | 0 | 10 | 0 | 0 | 40 | 40 | 60 | 20 | 0 | 30 | 50 |  |  | pest or weed control at 500 g/ha [1, 15]: 0%; pest or weed control at 500 g/ha [8, 15]: 70%; pest or weed control at 125 g/ha ([10]; 125 g ai/ha, read-out: Galium plant response rating): 50%; pest or weed control at 500 g/ha ([10]; 500 g ai/ha, visual injury, read-out: Plant response rating, Galium): 70%; pest or weed control at 500 g/ha [11, 15]: 90%; plant injury at 500 g/ha [12, 15]: 30% |
| COc1ccc(-n2cnc(C(C)C)n2)cc1C(=O)N1C[C@H](C)Oc2c(Cl)cccc21 [Compound 84, [(2S)-8-chloro-2-methyl-2,3-dihydro-1,4-benzoxazin-4-yl]-[5-(3-isopropyl-1,2,4-triazol-1-yl)-2-methoxy-phenyl]methanone] | 80 | 60 | 100 | 100 | 80 | 100 | 100 | 70 | 90 | 100 | 100 | 100 | 100 | 100 | 100 | 60 | 100 | 100 | 100 | 80 | pest or weed control at 500 g/ha [14]: 80%; pest or weed control at 500 g/ha [8, 16]: 100%; pest or weed control at 500 g/ha [11, 16]: 100%; plant injury at 500 g/ha [12, 16]: 90% |
| Cc1cccc2c1O[C@@H](C)CN2C(=O)c1cccc(-n2cnc(C3CCCC3)n2)c1 [Compound 80, [3-(3-Cyclopentyl-1H-1,2,4-triazol-1-yl)phenyl][(2S)-2,3-dihydro-2,8-dimethyl-4H-1,4-benzoxazin-4-yl]methanone] | 10 | 0 | 20 | 70 | 10 | 50 | 0 | 10 | 20 | 10 | 30 | 90 | 70 | 100 | 90 | 0 | 40 | 60 | 80 | 20 | pest or weed control at 500 g/ha [14]: 40%; pest or weed control at 500 g/ha [8, 16]: 100%; pest or weed control at 500 g/ha [11, 16]: 100%; plant injury at 500 g/ha [12, 16]: 10% |
| CCc1ncn(-c2ccc(OC)c(C(=O)N3C[C@H](C)Oc4c(Cl)cccc43)c2)n1 [Compound 88, [(2S)-8-Chloro-2,3-dihydro-2-methyl-4H-1,4-benzoxazin-4-yl][5-(3-ethyl-1H-1,2,4-triazol-1-yl)-2-methoxyphenyl]methanone] | 90 | 55 | 80 | 100 | 90 | 90 | 100 | 90 | 90 | 100 | 100 | 100 | 100 | 100 | 100 | 20 | 70 | 100 | 100 | 80 | pest or weed control at 500 g/ha [14]: 80%; pest or weed control at 500 g/ha [8, 16]: 100%; pest or weed control at 500 g/ha [11, 16]: 100%; plant injury at 500 g/ha [12, 16]: 40% |
